Test results reported in US20240261443A1, “COMPOUNDS AND COMPOSITIONS USEFUL AS RADIOTRACERS FOR IMAGING OF REACTIVE OXIDATIVE SPECIES” (Wake Forest University Health Sciences, priority 2019, published 2024).

Tests used:
Ex vivo serum stability = type: in vitro ADME; details: human serum, 37° C., after 120 min of tracer synthesis
Protocol: The ex vivo serum stability of [^18F]KS1 and [^18F]KS2 were analyzed in human serum samples, following previously published methods (Sai et al., Peptide-based PET imaging of the tumor restricted IL13RA2 biomarker. Oncotarget 2017, 5; Sattiraju et al., IL13RA2 targeted alpha particle therapy against glioblastoma. Journal of Nuclear Medicine 2016, 57 (supplement 2), 634; Wang et al., Evaluation of F-18-labeled amino acid derivatives and [18F]FDG as PET probes in a brain tumor-bearing animal model. Nuclear Medicine and Biology 2005, 32 (4), 367-375). Briefly, radiotracer was added to the human serum sample, and incubated at 37° C. Radioactive serum mixture was injected into the QC-HPLC system at 5 min, 30 min, 1 h, 1.5 h, 2 h, 2.5 h, and 3 h post radiotracer synthesis. Radiolysis through defluorination and/or oxidation of the radiotracers (if any) can be seen as new radiochemical peaks at different retention times (Rt) than the original product peak (Jin et al., A promising F-18 labeled PET radiotracer (-)-[18F]VAT for assessing the VAChT in vivo. Journal of Nuclear Medicine 2015, 56 (supplement 3); Koglin et al., [F-18]BAY 85-8050: A novel tumor specific probe for PET imaging-Preclinical results. Journal of Nuclear Medicine 2010, 51 (supplement 2), 1535; […] et al., Imaging COX-2 expression in cancer using PET/SPECT radioligands: current status and future directions. […]

PC3 cells = assay: [18F]KS1 in vitro cell uptake in PC3 cells, normoxic and hypoxic; type: cell-based, human
Protocol: ROS efficacy was evaluated in two tumor cell lines: (1)SCC-61 and rSCC-61 cells (HNSCC) (FIG. 5), and (2) PC3 (PCa) cell lines under normoxic and hypoxic conditions (FIG. 6) following previously published protocols by our group (Sai et al., Peptide-based PET imaging of the tumor restricted IL13RA2 biomarker. Oncotarget 2017, 5; Yamamoto et al., Correlation of 18F-FLT and 18F-FDG uptake on PET with Ki-67 immunohistochemistry in non-small cell lung cancer. European Journal of Nuclear Medicine and Molecular Imaging 2007, 34 (10), 1610-1616; Solingapuram Sai et al., Radiolabeling and initial biological evaluation of [18F]KBM-1 for imaging RAR-α receptors in neuroblastoma. Bioorganic & Medicinal Chemistry Letters 2017, 27 (6), 1425-1427). Several ROS blockers including fresh solution of non-radioactive compounds KS1, KS2, SOD (10 μM) in the cell media were added to the seeded tumor cells 1.0 h prior to radiotracer addition (n=6 per blocker). All the cells were then treated with [^18F]KS1 (2.0 μCi/well, UV mass=0.4 μg/mL and S.A=3100 mCi/μmol) and incubated for 60 min (n=6) at 37° C. All the cells (both with and without blockers) were washed and lysed with lysate buffer solution. Lysate samples from each well were collected for gamma counting.
Similarly, in another experiment, human PCa-PC3 cells were cultured under normoxic (˜21% O2) or hypoxic (1% O2) conditions for 48 h. Thereafter, similar to HNSCC cells (detailed above) all assay steps including blocker treatment, radiotracer addition, incubations, washings and lysis were carried out under normoxic or hypoxic conditions. All hypoxia experiments were performed in a hypoxia chamber (Biospherix X3 Xvivo system). Plates without radioactivity were used as controls. […] The counts per minute values of each well were normalized to the amount of radioactivity added to each well and was expressed as percent uptake relative to the control condition. The data were expressed as % ID/mg of protein present in each well.
To further test the specificity of [^18F]KS1 for ROS, radioactive uptake in PCa cells was tested under hypoxic conditions, as several studies have shown that hypoxic conditions promote ROS generation and oxidative stress (Kumar et al., Oxidative Stress Is Inherent in Prostate Cancer Cells and Is Required for Aggressive Phenotype. Cancer Research. 2008; 68:1777-85; Pinthus et al., Androgen Induces Adaptation to Oxidative Stress in Prostate Cancer: Implications for Treatment with Radiation Therapy. Neoplasia (New York, NY). 2007; 9:68-80; Cervellati et al., Hypoxia induces cell damage via oxidative stress in retinal epithelial cells. […] A reported hypoxia model of PCa cells was tested in which the uptake of [^18F]KS1 was evaluated in PC3 cells cultured under hypoxic conditions versus normoxic conditions.

## O=C1O/C(=C/CCl)C(O)=C1OCc1ccc(OCC[18F])cc1 [[^18F]KS1]
Ex vivo serum stability
  intact in serum: ~90%
PC3 cells; PC3 cells
  uptake blocked by SOD: ~48%
  uptake blocked by nonradioactive KS1: ~61%
  uptake increase with doxorubicin: ~15%
PC3 cells; hypoxic 1% O2 vs normoxic ~21% O2, 60 min
  radioactive uptake in PC3 under hypoxic conditions versus normoxic conditions: ~2 fold
